# Laboratory results as given in publication PMC6017357, “In Vitro Inhibitory Effects of Synthetic Cannabinoid EAM-2201 on Cytochrome P450 and UDP-Glucuronosyltransferase Enzyme Activities in Human Liver Microsomes” (Molecules : A Journal of Synthetic Chemistry and Natural …, 2018).
# Molecular target: CYP3A4 (Homo sapiens, UniProt P08684)
# Assay: CYP3A4-mediated midazolam 1′-hydroxylation in human liver microsomes (IC50 and time-dependent inhibition)
# Format: in vitro ADME
# Parameters: from tissue; host or cells: ultrapooled human liver microsomes
# Method: The inhibitory potential (IC50 values) of EAM-2201 on CYP1A2, CYP2A6, CYP2C8, CYP2C9, CYP2C19, CYP2D6 and CYP3A4 were evaluated using ultrapooled human liver microsomes and a cocktail of seven CYP substrates followed by LC-tandem mass spectrometry (LC-MS/MS) as previously described. Each incubation mixture was prepared in a total volume of 100 µL as follows: pooled human liver microsomes (5.2 pmol CYP), 1.0 mM NADPH, 10 mM magnesium chloride, 50 mM potassium phosphate buffer (pH 7.4), various concentrations of EAM-2201 in DMSO (final concentrations of 0.1–50 µM, 0.5% DMSO) and a cocktail of seven CYP probe substrates in 50% acetonitrile (0.5% acetonitrile), including 50 µM phenacetin, 2.5 µM coumarin, 2.0 µM amodiaquine, 10 µM diclofenac, 100 µM [S]-mephenytoin, 5 µM bufuralol and 2.5 µM midazolam in 50% acetonitrile. After a 3-min preincubation at 37 °C, the reactions were initiated by adding NADPH and incubation proceeded for 15 min at 37 °C in a shaking water bath. The reactions were stopped by adding 100 µL of ice-cold methanol containing internal standards (^13C2,^15N-acetaminophen for acetaminophen and N-desethylamodiaquine; d9-1′-hydroxybufuralol for 4′-hydroxydiclofenac, 7-hydroxycoumarin, 4′-hydroxymephenytoin, 1′-hydroxybufuralol and 1′-hydroxy-midazolam). The incubation mixtures were centrifuged at 13,000× g for 4 min at 4 °C and 50 µL of each supernatant was diluted in 50 µL of water. Aliquots (5 µL) of the diluted supernatants were analyzed using LC-MS/MS. All assays were performed in triplicate and the mean values were used in calculations. […] Each reaction was initiated by adding the seven-CYP probe substrate cocktail described above.
# The time-dependent inhibitory effects of EAM-2201 on CYP2C8, CYP2C9, CYP2C19 and CYP3A4 activities in ultrapooled human liver microsomes were evaluated using time- and concentration-dependent inhibition assays. Ultrapooled human liver microsomes (26.0 pmol CYP) were pre-incubated with various concentrations of EAM-2201 in DMSO (0.5% DMSO) in 50 mM potassium phosphate buffer (pH 7.4) in the presence of NADPH for predetermined time periods: 5–15 min for CYP2C8 activity, 5–20 min for CYP2C9 activity and 15–40 min for CYP2C19 and CYP3A4 activities. […] Aliquots (5 µL) of the diluted supernatants were analyzed using LC-MS/MS.
# The metabolites formed from CYP substrates were simultaneously quantified using our previously described LC-MS/MS method. […]
# CYP3A4, sequence (P08684 whole entry): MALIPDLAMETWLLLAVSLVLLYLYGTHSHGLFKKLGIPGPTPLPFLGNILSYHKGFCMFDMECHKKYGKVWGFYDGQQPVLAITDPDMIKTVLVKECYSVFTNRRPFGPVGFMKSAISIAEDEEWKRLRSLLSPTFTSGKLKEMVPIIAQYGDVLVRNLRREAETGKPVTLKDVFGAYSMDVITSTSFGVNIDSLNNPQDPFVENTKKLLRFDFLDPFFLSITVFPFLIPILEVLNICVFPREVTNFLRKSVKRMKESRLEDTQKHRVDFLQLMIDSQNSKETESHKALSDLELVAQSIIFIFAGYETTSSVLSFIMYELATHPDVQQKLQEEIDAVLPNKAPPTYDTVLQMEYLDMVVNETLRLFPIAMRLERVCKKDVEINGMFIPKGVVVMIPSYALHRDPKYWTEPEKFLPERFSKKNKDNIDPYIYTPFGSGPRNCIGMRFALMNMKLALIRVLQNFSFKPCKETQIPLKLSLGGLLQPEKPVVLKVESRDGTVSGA
smiles,measurement,setting,value
"CCc1ccc(C(=O)c2cn(CCCCCF)c3ccccc23)c2ccccc12 [EAM-2201, (4-ethyl-1-naphthalenyl)[1-(5-fluoropentyl)-1H-indol-3-yl]-methanone]",IC50,,17.6 µM
same,kinact/Ki value for CYP3A4,human liver microsomes,102 M⁻¹ s⁻¹
same,kinact,"human, ultrapooled human liver microsomes, pH 7.4, probe midazolam (2 µM), 1′-hydroxylation, read-out: kinact, time-dependent inhibition of CYP3A4 midazolam 1′-hydroxylase (converted)",0.000417 s⁻¹
same,inhibition of CYP3A4-mediated midazolam 1′-hydroxylation,"up to 50 µM, without 30-min preincubation, human liver microsomes",negligibly inhibited
